We go through two molecules from paper PMC2788921 (Biochemistry, 2009).

The target in experiment [1] is benzoylformate decarboxylase (BFDC) (Pseudomonas putida, UniProt P20906). In words: stopped-flow PDA transient kinetics. It counts as binding.
The target of the next experiment is benzaldehyde lyase (BAL) (Pseudomonas fluorescens, UniProt P51853). In words: CD titration of purified BAL. The class given is binding.

A word on the Kd: it is the constant that tells how readily two partners part at equilibrium. Higher therefore signals lower affinity.

benzaldehyde lyase (BAL), sequence (P51853 whole entry): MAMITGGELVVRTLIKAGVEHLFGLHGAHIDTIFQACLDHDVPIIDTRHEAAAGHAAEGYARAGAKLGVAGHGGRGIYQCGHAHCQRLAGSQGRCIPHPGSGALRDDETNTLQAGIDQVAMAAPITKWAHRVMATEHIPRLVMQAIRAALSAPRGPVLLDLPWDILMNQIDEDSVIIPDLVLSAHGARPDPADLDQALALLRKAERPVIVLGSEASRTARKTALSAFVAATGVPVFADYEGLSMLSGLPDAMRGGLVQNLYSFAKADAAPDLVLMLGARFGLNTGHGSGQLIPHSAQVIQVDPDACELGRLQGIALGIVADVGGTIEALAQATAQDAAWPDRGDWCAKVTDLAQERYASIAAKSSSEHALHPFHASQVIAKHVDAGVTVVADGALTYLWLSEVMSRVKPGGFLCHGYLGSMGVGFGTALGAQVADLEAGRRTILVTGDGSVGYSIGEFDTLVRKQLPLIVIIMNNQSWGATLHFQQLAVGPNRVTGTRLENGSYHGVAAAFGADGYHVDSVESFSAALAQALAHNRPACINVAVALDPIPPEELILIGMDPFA
benzoylformate decarboxylase (BFDC), sequence (P20906 whole entry): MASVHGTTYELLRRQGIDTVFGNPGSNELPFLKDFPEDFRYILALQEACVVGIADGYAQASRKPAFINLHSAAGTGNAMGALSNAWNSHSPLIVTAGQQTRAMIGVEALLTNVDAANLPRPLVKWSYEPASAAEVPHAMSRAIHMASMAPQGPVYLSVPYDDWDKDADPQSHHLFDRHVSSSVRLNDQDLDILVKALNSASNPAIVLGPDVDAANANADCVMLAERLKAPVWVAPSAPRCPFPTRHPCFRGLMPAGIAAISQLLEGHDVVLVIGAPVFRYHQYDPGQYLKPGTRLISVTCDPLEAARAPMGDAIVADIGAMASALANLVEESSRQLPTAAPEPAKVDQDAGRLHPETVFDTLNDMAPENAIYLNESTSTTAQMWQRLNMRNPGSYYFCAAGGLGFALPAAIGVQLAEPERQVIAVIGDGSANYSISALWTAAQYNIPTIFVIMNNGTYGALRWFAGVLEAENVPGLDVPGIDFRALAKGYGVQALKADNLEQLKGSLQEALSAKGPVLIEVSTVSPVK

Molecule `O=C(O)C(=O)/C=C/c1cccnc1` [3-PKB, (E)-2-oxo-4-(pyridin-3-yl)but-3-enoic acid] returned a dissociation constant (Kd) in experiment [1] of 340 µM.

Regarding `O=C/C=C/c1cccnc1` [PAA, (E)-3-(pyridin-3-yl)acrylaldehyde], the Kd at benzaldehyde lyase (BAL) was determined as 21.4 ± 1.98 µM.
